Source: the NIST ThermoML archive (doi:10.1016/j.jct.2015.02.020)

Assays:
[1] = xn = mol fraction of the nth substance listed; settings: 101.3 kPa, Liquid; for viscosity: Falling or rolling sphere viscometry; for speed of sound: Sing-around technique in a fixed-path interferometer; for mass density: Vibrating tube method
[2] = refractive index (Na D-line) (dimensionless); xn = mol fraction of the nth substance listed; settings: 101.3 kPa, Liquid, Standard Abbe refractometry

CC[n+]1ccc(C)cc1.O=S(=O)([N-]S(=O)(=O)C(F)(F)F)C(F)(F)F + O
Settings | mass density, [1] [kg/m3] | refractive index, [2] | speed of sound, [1] [m/s] | viscosity, [1] [mPa·s]
298.15 K, x2 = 0.144 | 1479.48 | 1.44235 | 1266.8 | 24.89
298.15 K, x2 = 0.201 | 1476.6 | 1.44165 | 1268.3 | 22.72
298.15 K, x2 = 0.306 | 1469.91 | 1.44005 | 1271.7 | 19.35
303.15 K, x2 = 0.144 | 1474.53 | 1.44089 | 1255.4 | 21.05
303.15 K, x2 = 0.201 | 1471.63 | 1.44016 | 1256.8 | 19.29
303.15 K, x2 = 0.306 | 1464.89 | 1.43866 | 1260.3 | 16.23
308.15 K, x2 = 0.144 | 1469.61 | 1.4394 | 1244.1 | 18.04
308.15 K, x2 = 0.201 | 1466.68 | 1.43875 | 1245.5 | 16.53
308.15 K, x2 = 0.306 | 1459 | 1.43719 | 1249.2 | 13.95
313.15 K, x2 = 0.144 | 1464.69 | 1.43785 | 1232.9 | 15.53
313.15 K, x2 = 0.201 | 1461.75 | 1.43727 | 1234.3 | 14.31
313.15 K, x2 = 0.306 | 1454.92 | 1.4355 | 1238 | 12.19
318.15 K, x2 = 0.144 | 1459.79 | 1.43674 | 1221.8 | 13.59
318.15 K, x2 = 0.201 | 1456.83 | 1.4359 | 1223.2 | 12.58
318.15 K, x2 = 0.306 | 1449.95 | 1.4346 | 1226.8 | 10.74
323.15 K, x2 = 0.144 | 1454.91 | 1.43532 | 1210.9 | 12.03
323.15 K, x2 = 0.201 | 1451.92 | 1.43441 | 1212.2 | 11.15
323.15 K, x2 = 0.306 | 1444.99 | 1.43373 | 1215.7 | 9.52
328.15 K, x2 = 0.144 | 1450.05 | 1.43396 | 1200.1 | 10.7
328.15 K, x2 = 0.201 | 1447.04 | 1.43298 | 1201.3 | 9.939
328.15 K, x2 = 0.306 | 1440.05 | 1.4324 | 1204.7 | 8.473
333.15 K, x2 = 0.144 | 1445.21 | 1.43253 | 1189.4 | 9.576
333.15 K, x2 = 0.201 | 1442.18 | 1.43159 | 1190.6 | 8.902
333.15 K, x2 = 0.306 | 1435.13 | 1.43102 | 1193.9 | 7.583
338.15 K, x2 = 0.144 | 1440.39 | 1.43108 | 1178.7 | 8.598
338.15 K, x2 = 0.201 | 1437.33 | 1.43016 | 1179.9 | 7.999
338.15 K, x2 = 0.306 | 1430.22 | 1.42965 | 1183 | 6.83
343.15 K, x2 = 0.144 | 1435.58 | 1.42964 | 1168.2 | 7.76
343.15 K, x2 = 0.201 | 1432.49 | 1.42874 | 1169.3 | 7.221
343.15 K, x2 = 0.306 | 1425.33 | 1.42828 | 1172.2 | –

CC[n+]1cccc(C)c1.O=S(=O)([N-]S(=O)(=O)C(F)(F)F)C(F)(F)F + O
Settings | mass density, [1] [kg/m3] | refractive index, [2] | speed of sound, [1] [m/s] | viscosity, [1] [mPa·s]
298.15 K, x2 = 0.131 | 1481.91 | 1.44197 | 1262.7 | 29.75
298.15 K, x2 = 0.189 | 1479.39 | 1.44144 | 1264.6 | 27.2
298.15 K, x2 = 0.266 | 1473.92 | 1.44013 | 1268.3 | 23.89
303.15 K, x2 = 0.131 | 1477.02 | 1.44057 | 1251.8 | 24.96
303.15 K, x2 = 0.189 | 1474.49 | 1.44005 | 1253.4 | 22.92
303.15 K, x2 = 0.266 | 1468.97 | 1.43917 | 1257.1 | 20.03
308.15 K, x2 = 0.131 | 1472.16 | 1.4391 | 1240.8 | 21.21
308.15 K, x2 = 0.189 | 1469.6 | 1.43852 | 1242.3 | 19.52
308.15 K, x2 = 0.266 | 1464.04 | 1.43769 | 1246 | 17.09
313.15 K, x2 = 0.131 | 1467.31 | 1.43766 | 1229.9 | 18.24
313.15 K, x2 = 0.189 | 1464.73 | 1.43716 | 1231.4 | 16.84
313.15 K, x2 = 0.266 | 1459.12 | 1.43624 | 1234.9 | 14.62
318.15 K, x2 = 0.131 | 1462.48 | 1.43623 | 1219.1 | 15.79
318.15 K, x2 = 0.189 | 1459.88 | 1.43573 | 1220.5 | 14.61
318.15 K, x2 = 0.266 | 1454.22 | 1.43533 | 1224 | 12.74
323.15 K, x2 = 0.131 | 1457.66 | 1.4348 | 1208.4 | 13.84
323.15 K, x2 = 0.189 | 1455.04 | 1.43425 | 1209.5 | 12.88
323.15 K, x2 = 0.266 | 1449.34 | 1.43385 | 1213.2 | 11.23
328.15 K, x2 = 0.131 | 1452.87 | 1.43338 | 1197.8 | 12.27
328.15 K, x2 = 0.189 | 1450.22 | 1.43281 | 1199.2 | 11.44
328.15 K, x2 = 0.266 | 1444.47 | 1.43261 | 1202.4 | 9.965
333.15 K, x2 = 0.131 | 1448.09 | 1.43195 | 1187.3 | 10.95
333.15 K, x2 = 0.189 | 1445.42 | 1.43142 | 1188.6 | 10.21
333.15 K, x2 = 0.266 | 1439.61 | 1.43119 | 1191.8 | 8.892
338.15 K, x2 = 0.131 | 1443.32 | 1.43052 | 1176.9 | 9.815
338.15 K, x2 = 0.189 | 1440.63 | 1.42999 | 1178.2 | 9.153
338.15 K, x2 = 0.266 | 1434.78 | 1.42974 | 1181.2 | 7.977
343.15 K, x2 = 0.131 | 1438.57 | 1.42911 | 1166.6 | 8.833
343.15 K, x2 = 0.189 | 1435.85 | 1.42853 | 1167.8 | 8.239
343.15 K, x2 = 0.266 | 1429.95 | 1.42835 | 1170.8 | 7.182

CC[n+]1ccccc1C.O=S(=O)([N-]S(=O)(=O)C(F)(F)F)C(F)(F)F + O
Settings | mass density, [1] [kg/m3] | refractive index, [2] | speed of sound, [1] [m/s] | viscosity, [1] [mPa·s]
298.15 K, x2 = 0.124 | 1498.88 | 1.44635 | 1301.6 | 54.52
298.15 K, x2 = 0.172 | 1496.43 | 1.44579 | 1302.6 | 48.93
298.15 K, x2 = 0.256 | 1490.94 | 1.44479 | 1304.6 | 40.5
303.15 K, x2 = 0.124 | 1493.99 | 1.44489 | 1290.2 | 44.3
303.15 K, x2 = 0.172 | 1491.53 | 1.44442 | 1291.2 | 39.95
303.15 K, x2 = 0.256 | 1485.99 | 1.44323 | 1293.2 | 32.89
308.15 K, x2 = 0.124 | 1489.12 | 1.44343 | 1279 | 36.58
308.15 K, x2 = 0.172 | 1486.64 | 1.44289 | 1279.9 | 33.11
308.15 K, x2 = 0.256 | 1481.06 | 1.44178 | 1282.2 | 27.38
313.15 K, x2 = 0.124 | 1484.26 | 1.44195 | 1267.9 | 30.63
313.15 K, x2 = 0.172 | 1481.77 | 1.44136 | 1268.8 | 27.84
313.15 K, x2 = 0.256 | 1476.14 | 1.44044 | 1271 | 23.19
318.15 K, x2 = 0.124 | 1479.43 | 1.4405 | 1256.9 | 25.97
318.15 K, x2 = 0.172 | 1476.91 | 1.43988 | 1257.8 | 23.68
318.15 K, x2 = 0.256 | 1471.25 | 1.43914 | 1259.9 | 19.85
323.15 K, x2 = 0.124 | 1474.61 | 1.43906 | 1246 | 22.27
323.15 K, x2 = 0.172 | 1472.08 | 1.43853 | 1246.8 | 20.38
323.15 K, x2 = 0.256 | 1466.37 | 1.43787 | 1248.8 | 17.19
328.15 K, x2 = 0.124 | 1469.81 | 1.43777 | 1235.3 | 19.27
328.15 K, x2 = 0.172 | 1467.26 | 1.4372 | 1236 | 17.72
328.15 K, x2 = 0.256 | 1461.5 | 1.43662 | 1237.9 | 14.95
333.15 K, x2 = 0.124 | 1465.03 | 1.43633 | 1224.6 | 16.83
333.15 K, x2 = 0.172 | 1462.46 | 1.43586 | 1225.3 | 15.44
333.15 K, x2 = 0.256 | 1456.65 | 1.43532 | 1227.1 | 13.17
338.15 K, x2 = 0.124 | 1460.28 | 1.43494 | 1214 | 14.77
338.15 K, x2 = 0.172 | 1457.68 | 1.43447 | 1214.6 | 13.67
338.15 K, x2 = 0.256 | 1451.82 | 1.43398 | 1216.3 | 11.71
343.15 K, x2 = 0.124 | 1455.53 | 1.43355 | 1203.5 | 13.13
343.15 K, x2 = 0.172 | 1452.91 | 1.43315 | 1204.1 | 12.18
343.15 K, x2 = 0.256 | 1447.01 | 1.43279 | 1205.6 | 10.47
